From ChEMBL document CHEMBL2440042, “Anti-proliferative activity of hydnocarpin, a natural lignan, is associated with the suppression of Wnt/β-catenin signaling pathway in colon cancer cells” (Bioorg Med Chem Lett, 2013)
Active and inactive are the calls of the source. The calls are words filed in the database; no cut-off is given here.

How the values were obtained:
SW480 [1] = assay: Antiproliferative activity against human SW480 cells assessed as growth inhibition after 72 hrs by SRB assay; assay type: functional, cell-based; conditions: SW480, 72 h
SW480 [2] = assay: Inhibition of Wnt/beta-catenin signaling pathway in human SW480 cells assessed as dvl3 protein expression at 10 uM after 12 hrs by Western blotting analysis relative to vehicle-treated control
SW480 [3] = assay: Growth inhibition in human SW480 cells at 1 to 20 uM after 72 hrs by SRB assay in presence of axin1 siRNA; assay type: functional, cell-based
SW480 [4] = assay: Inhibition of Wnt/beta-catenin signaling pathway in human SW480 cells assessed as dvl3 protein expression at 20 uM after 24 hrs by Western blotting analysis relative to vehicle-treated control
SW480 [5] = assay: Inhibition of Wnt/beta-catenin signaling pathway in human SW480 cells assessed as Axin1 protein expression at 5 uM after 12 hrs by Western blotting analysis relative to vehicle-treated control
SW480 [6] = assay: Inhibition of Wnt/beta-catenin signaling pathway in human SW480 cells assessed as Axin2 protein expression at 10 uM after 24 hrs by Immunoblotting analysis relative to vehicle-treated control
SW480 [7] = assay: Inhibition of Wnt/beta-catenin signaling pathway in human SW480 cells assessed as GSK3-beta protein expression at 20 uM after 24 hrs by Western blotting analysis relative to vehicle-treated control
SW480 [8] = assay: Inhibition of Wnt/beta-catenin signaling pathway in human SW480 cells assessed as Axin2 protein expression at 10 uM after 12 hrs by Western blotting analysis relative to vehicle-treated control
SW480 [9] = assay: Inhibition of Wnt/beta-catenin signaling pathway in human SW480 cells assessed as CK1-alpha protein expression at 20 uM after 24 hrs by Western blotting analysis relative to vehicle-treated control
SW480 [10] = assay: Inhibition of Wnt/beta-catenin signaling pathway in human SW480 cells assessed as GSK3-beta protein expression at 5 uM after 12 hrs by Western blotting analysis relative to vehicle-treated control
SW480 [11] = assay: Inhibition of Wnt/beta-catenin signaling pathway in human SW480 cells assessed as dvl1 protein expression at 5 uM after 12 hrs by Western blotting analysis relative to vehicle-treated control
SW480 [12] = assay: Inhibition of Wnt/beta-catenin signaling pathway in human SW480 cells assessed as beta-catenin protein expression at 5 uM after 24 hrs by Western blotting analysis relative to vehicle-treated control
SW480 [13] = assay: Inhibition of Wnt/beta-catenin signaling pathway in human SW480 cells assessed as GSK3-beta protein expression at 10 uM after 24 hrs by Western blotting analysis relative to vehicle-treated control
SW480 [14] = assay: Inhibition of Wnt/beta-catenin signaling pathway in human SW480 cells assessed as CK1-alpha protein expression at 5 uM after 24 hrs by Western blotting analysis relative to vehicle-treated control
SW480 [15] = assay: Inhibition of Wnt/beta-catenin signaling pathway in human SW480 cells assessed as GSK3-beta protein expression at 10 uM after 12 hrs by Western blotting analysis relative to vehicle-treated control
SW480 [16] = assay: Inhibition of Wnt/beta-catenin signaling pathway in human SW480 cells assessed as dvl1 protein expression at 10 uM after 12 hrs by Western blotting analysis relative to vehicle-treated control
SW480 [17] = assay: Inhibition of Wnt/beta-catenin signaling pathway in human SW480 cells assessed as phosphorylated (S45) beta-catenin protein expression at 20 uM after 24 hrs by Western blotting analysis relative to vehicle-treated control
SW480 [18] = assay: Inhibition of Wnt/beta-catenin signaling pathway in human SW480 cells assessed as dvl1 protein expression at 5 uM after 24 hrs by Western blotting analysis relative to vehicle-treated control
SW480 [19] = assay: Inhibition of Wnt/beta-catenin signaling pathway in human SW480 cells assessed as dvl2 protein expression at 5 uM after 12 hrs by Western blotting analysis relative to vehicle-treated control
SW480 [20] = assay: Inhibition of Wnt/beta-catenin signaling pathway in human SW480 cells assessed as dvl3 protein expression at 5 uM after 12 hrs by Western blotting analysis relative to vehicle-treated control
SW480 [21] = assay: Inhibition of Wnt/beta-catenin signaling pathway in human SW480 cells assessed as beta-catenin protein expression at 5 uM after 12 hrs by Western blotting analysis relative to vehicle-treated control
SW480 [22] = assay: Inhibition of Wnt/beta-catenin signaling pathway in human SW480 cells assessed as dvl3 protein expression at 20 uM after 12 hrs by Western blotting analysis relative to vehicle-treated control
SW480 [23] = assay: Inhibition of Wnt/beta-catenin signaling pathway in human SW480 cells assessed as Axin2 protein expression at 20 uM after 24 hrs by Western blotting analysis relative to vehicle-treated control
SW480 [24] = assay: Inhibition of Wnt/beta-catenin signaling pathway in human SW480 cells assessed as CK1-alpha protein expression at 20 uM after 12 hrs by Western blotting analysis relative to vehicle-treated control
SW480 [25] = assay: Inhibition of Wnt/beta-catenin signaling pathway in human SW480 cells assessed as dvl2 protein expression at 5 uM after 24 hrs by Western blotting analysis relative to vehicle-treated control
SW480 [26] = assay: Inhibition of Wnt/beta-catenin signaling pathway in human SW480 cells assessed as dvl3 protein expression at 5 uM after 24 hrs by Western blotting analysis relative to vehicle-treated control
SW480 [27] = assay: Inhibition of Wnt/beta-catenin signaling pathway in human SW480 cells assessed as dvl1 protein expression at 20 uM after 24 hrs by Western blotting analysis relative to vehicle-treated control
SW480 [28] = assay: Inhibition of Wnt/beta-catenin signaling pathway in human SW480 cells after 24 hrs by TOPflash luciferase reporter gene assay relative to vehicle-treated control; assay type: cell-based
SW480 [29] = assay: Inhibition of Wnt/beta-catenin signaling pathway in human SW480 cells assessed as CK1-alpha protein expression at 10 uM after 12 hrs by Western blotting analysis relative to vehicle-treated control
SW480 [30] = assay: Inhibition of Wnt/beta-catenin signaling pathway in human SW480 cells assessed as increase in phosphorylation of beta-catenin at Ser45 at 10 uM after 12 hrs by Western blotting analysis relative to vehicle-treated control
SW480 [31] = assay: Inhibition of Wnt/beta-catenin signaling pathway in human SW480 cells assessed as Axin2 protein expression at 10 uM after 24 hrs by Western blotting analysis relative to vehicle-treated control
SW480 [32] = assay: Inhibition of Wnt/beta-catenin signaling pathway in human SW480 cells assessed as Axin1 protein expression at 10 uM after 12 hrs by Western blotting analysis relative to vehicle-treated control
SW480 [33] = assay: Inhibition of Wnt/beta-catenin signaling pathway in human SW480 cells assessed as beta-catenin protein expression at 20 uM after 24 hrs by Western blotting analysis relative to vehicle-treated control
SW480 [34] = assay: Inhibition of Wnt/beta-catenin signaling pathway in human SW480 cells assessed as Axin2 protein expression at 5 uM after 12 hrs by Western blotting analysis relative to vehicle-treated control
SW480 [35] = assay: Inhibition of Wnt/beta-catenin signaling pathway in human SW480 cells assessed as GSK3-beta protein expression at 20 uM after 12 hrs by Western blotting analysis relative to vehicle-treated control

IC50 (SW480 [1]): 20.3 µM
SMILES: COc1cc([C@H]2Oc3ccc(-c4cc(=O)c5c(O)cc(O)cc5o4)cc3O[C@@H]2CO)ccc1O (relative stereo)
fold change (FC) (SW480 [2]): 1
growth inhibition (GI) (SW480 [3]): inactive
fold change (FC) (SW480 [4]): 1.1
fold change (FC) (SW480 [5]): 1.9
fold change (FC) (SW480 [6]): 1.2
fold change (FC) (SW480 [7]): 1
fold change (FC) (SW480 [8]): 3.4
fold change (FC) (SW480 [9]): 1.1
fold change (FC) (SW480 [10]): 0.8
fold change (FC) (SW480 [11]): 1.2
fold change (FC) (SW480 [12]): 0.8
fold change (FC) (SW480 [13]): 1.2
fold change (FC) (SW480 [14]): 1.1
fold change (FC) (SW480 [15]): 0.8
fold change (FC) (SW480 [16]): 1
fold change (FC) (SW480 [17]): 2.4
fold change (FC) (SW480 [18]): 1
fold change (FC) (SW480 [19]): 1.2
fold change (FC) (SW480 [20]): 1
fold change (FC) (SW480 [21]): 0.8
fold change (FC) (SW480 [22]): 1.1
fold change (FC) (SW480 [23]): 6.7
fold change (FC) (SW480 [24]): 1.2
fold change (FC) (SW480 [25]): 1.2
fold change (FC) (SW480 [26]): 1.2
fold change (FC) (SW480 [27]): 1.2
inhibition (SW480 [28]): Dose-dependent effect
fold change (FC) (SW480 [29]): 0.9
fold change (FC) (SW480 [30]): 3.6
fold change (FC) (SW480 [31]): 3.2
fold change (FC) (SW480 [32]): 2.2
fold change (FC) (SW480 [33]): 0.7
fold change (FC) (SW480 [34]): 1
fold change (FC) (SW480 [35]): 0.9
